Results published in patent US9274101B2 (BIOLOG, Inc., priority 2001, dated 2016).

Legend:
Type in all cases: cell-based, human
[1] = system: Undifferentiated HL-60 cells; assay: Energy use by undifferentiated HL-60 cells
HL-60 cells [2] = assay: Effect of 10 mM citric acid on HL-60 energy utilization; settings: negative control without energy sources and without citric acid
[3] = system: DMSO-differentiated HL-60 cells; assay: Energy use by DMSO-differentiated HL-60 cells
Description: In this Example, methods for testing in vitro-differentiated cells for their ability to use multiple energy sources are described. Prior to differentiation, HL-60 cells were cultured as described in Example 27. DMSO-induced differentiation (Odani et al., Res. Commun. Mol. Pathol. Pharmacol. 108:381-391 [2000]; and Yamaguchi et al., Biol. Pharm. Bull. 20:943-947 [1997]) was accomplished by incubation of the cells in the presence of 1.25% DMSO for 3 days.
After washing, HL-60 cells were resuspended in DME-R. An aliquot of the cell suspension was counted by trypan blue exclusion and the cell density was adjusted to 6.67×10^5/mL. Fifty μL of DME-R were added to each well of the appropriate number of half area, 96-well plates, followed by 25 μL of the appropriate dilution of each test energy source. Stocks of 133 mM of each test chemical were prepared in tissue culture grade water, sterile filtered, and dilutions were prepared in a master plate so that, upon dilution into a half-area 96-well microtiter plate to a total well volume of 150 μL, the final concentrations would be 0.033 to 20 mM. Negative control wells received 25 μL of tissue culture grade water. The cells were plated at a volume of 75 μL/well, giving a final cell density of 5×10^4/well. For each plate containing energy sources and cells, a second, control plate containing only energy sources was prepared with the same total volume of liquid (148 μL/well). Plates were incubated at 5% CO2, 90-100% humidity, and 37° C. for 24 hours prior to addition of the MTS/MPMS calorimetric reagent (7.5 μL/well). The color formed in each well 24 hours after addition of the colorimetric reagent, was measured with a plate reader at 490 nm with a reference wavelength of 650 nm. OD values from the control plate were subtracted from the OD values obtained with cells prior to normalizing the data to % negative control (cells without added energy source).

HL-60 cells [4] = assay: HL-60 responses to selected compounds at a range of concentrations
Description: In this Example, methods for testing unattached cells for their ability to use various concentrations of selected carbon sources are described. The carbon sources used in this Example were identified by the methods disclosed in Example 27. Similarly, HL-60 cells were cultured as described in Example 27.
After washing, HL-60 cells were resuspended in DME-R. An aliquot of the cell suspension was counted by trypan blue exclusion and the cell density was adjusted to 6.67×10^5/mL. Fifty μL of DME-R were added to each well of the appropriate number of half area, 96-well plates, followed by 23 μL of the appropriate dilution of each test energy source. Stocks of 133 mM of each test chemical were prepared in tissue culture grade water, sterile filtered, and dilutions were prepared in a master plate so that, upon dilution in a total volume of 150 μL, the final concentrations would be 0.033 to 20 mM. Negative control wells received 23 μL of tissue culture grade water. The cells were plated at a volume of 75 μL/well, giving a final cell density of 5×10^4/well. For each plate containing energy sources and cells, a second, control plate containing only energy sources was prepared. Plates were incubated at 5% CO2, 90-100% humidity, and 37° C. for 24 hours prior to addition of the MTS/MPMS colorometric reagent (7.5 μL/well). The color formed in each well after an additional 24 hour incubation period, was measured on a plate reader at 490 nm with a reference wavelength of 650 nm. OD values from the control plate were subtracted from the OD values obtained with cells prior to normalizing the data to % negative control (cells without added energy source).

[5] = energy source 0.03 mM with 10 mM citric acid
[6] = energy source 0.10 mM with 10 mM citric acid
[7] = energy source 0.33 mM with 10 mM citric acid
[8] = energy source 1.00 mM with 10 mM citric acid
[9] = energy source 3.3 mM with 10 mM citric acid
[10] = energy source 10 mM with 10 mM citric acid
[11] = energy source 15 mM with 10 mM citric acid
[12] = energy source 20 mM with 10 mM citric acid

Structure (SMILES) | Energy Use by Undifferentiated HL-60 Cells ([1]; Conc. 0.03 mM) | Energy Use by Undifferentiated HL-60 Cells ([1]; Conc. 0.10 mM) | Energy Use by Undifferentiated HL-60 Cells ([1]; Conc. 0.33 mM) | Energy Use by Undifferentiated HL-60 Cells ([1]; Conc. 1.00 mM) | Energy Use by Undifferentiated HL-60 Cells ([1]; Conc. 3.3 mM) | Energy Use by Undifferentiated HL-60 Cells ([1]; Conc. 10 mM) | Energy Use by Undifferentiated HL-60 Cells ([1]; Conc. 15 mM) | Energy Use by Undifferentiated HL-60 Cells ([1]; Conc. 20 mM) | Effect of 10 mM Citric Acid on HL-60 Energy Utilization (HL-60 cells [2]; [5]) | Effect of 10 mM Citric Acid on HL-60 Energy Utilization (HL-60 cells [2]; [6]) | Effect of 10 mM Citric Acid on HL-60 Energy Utilization (HL-60 cells [2]; [7]) | Effect of 10 mM Citric Acid on HL-60 Energy Utilization (HL-60 cells [2]; [8]) | Effect of 10 mM Citric Acid on HL-60 Energy Utilization (HL-60 cells [2]; [9]) | Effect of 10 mM Citric Acid on HL-60 Energy Utilization (HL-60 cells [2]; [10]) | Effect of 10 mM Citric Acid on HL-60 Energy Utilization (HL-60 cells [2]; [11]) | Effect of 10 mM Citric Acid on HL-60 Energy Utilization (HL-60 cells [2]; [12]) | Energy Use by DMSO-Differentiated HL-60 Cells ([3]; Conc. 0.03 mM) | Energy Use by DMSO-Differentiated HL-60 Cells ([3]; Conc. 0.10 mM) | Energy Use by DMSO-Differentiated HL-60 Cells ([3]; Conc. 0.33 mM) | Energy Use by DMSO-Differentiated HL-60 Cells ([3]; Conc. 1.00 mM) | further results
O=C1O[C@H]([C@@H](O)CO)[C@@H](O)[C@@H]1O [L-gal acid g-lactone] | 117.0 % of negative control | 125.9 % of negative control | 132.9 % of negative control | 137.0 % of negative control | 160.8 % of negative control | 153.0 % of negative control | 163.4 % of negative control | 126.2 % of negative control | 16.2 % of negative control | 18.2 % of negative control | 19.7 % of negative control | 38.6 % of negative control | 188.9 % of negative control | 138.4 % of negative control | 122.4 % of negative control | 111.5 % of negative control | 113.9 % of negative control | 129.2 % of negative control | 137.5 % of negative control | 155.4 % of negative control | Energy Use by DMSO-Differentiated HL-60 Cells ([3]; Conc. 3.3 mM): 178.2 % of negative control; Energy Use by DMSO-Differentiated HL-60 Cells ([3]; Conc. 10 mM): 171.1 % of negative control; Energy Use by DMSO-Differentiated HL-60 Cells ([3]; Conc. 15 mM): 131.1 % of negative control; Energy Use by DMSO-Differentiated HL-60 Cells ([3]; Conc. 20 mM): 98.1 % of negative control; HL-60 Cell Responses to Selected Compounds from PM1 and PM2 (HL-60 cells [4]; Conc. 0.03 mM): 129.3 % of negative control; HL-60 Cell Responses to Selected Compounds from PM1 and PM2 (HL-60 cells [4]; Conc. 0.10 mM): 132.3 % of negative control; HL-60 Cell Responses to Selected Compounds from PM1 and PM2 (HL-60 cells [4]; Conc. 0.33 mM): 132.4 % of negative control; HL-60 Cell Responses to Selected Compounds from PM1 and PM2 (HL-60 cells [4]; Conc. 1.00 mM): 145.0 % of negative control; HL-60 Cell Responses to Selected Compounds from PM1 and PM2 (HL-60 cells [4]; Conc. 3.3 mM): 141.5 % of negative control; HL-60 Cell Responses to Selected Compounds from PM1 and PM2 (HL-60 cells [4]; Conc. 10 mM): 122.8 % of negative control; HL-60 Cell Responses to Selected Compounds from PM1 and PM2 (HL-60 cells [4]; Conc. 15 mM): 125.0 % of negative control; HL-60 Cell Responses to Selected Compounds from PM1 and PM2 (HL-60 cells [4]; Conc. 20 mM): 100.4 % of negative control
O=C(O)[C@@H]1C[C@@H](O)CN1 [hydroxy L-proline] | 109.9 % of negative control | 112.9 % of negative control | 99.6 % of negative control | 104.7 % of negative control | 114.7 % of negative control | 117.8 % of negative control | 124.2 % of negative control | 101.8 % of negative control | 7.6 % of negative control | 17.7 % of negative control | 25.0 % of negative control | 37.5 % of negative control | 49.0 % of negative control | 85.0 % of negative control | 87.4 % of negative control | 68.8 % of negative control | 102.8 % of negative control | 110.5 % of negative control | 120.5 % of negative control | 121.9 % of negative control | Energy Use by DMSO-Differentiated HL-60 Cells ([3]; Conc. 3.3 mM): 129.0 % of negative control; Energy Use by DMSO-Differentiated HL-60 Cells ([3]; Conc. 10 mM): 126.9 % of negative control; Energy Use by DMSO-Differentiated HL-60 Cells ([3]; Conc. 15 mM): 109.0 % of negative control; Energy Use by DMSO-Differentiated HL-60 Cells ([3]; Conc. 20 mM): 92.0 % of negative control; response greater than the negative control (HL-60 cells [4]; 0.033 to 20 mM, 24 h culture + 24 h color development): < 30%; HL-60 Cell Responses to Selected Compounds from PM1 and PM2 (HL-60 cells [4]; Conc. 0.03 mM): 125.0 % of negative control; HL-60 Cell Responses to Selected Compounds from PM1 and PM2 (HL-60 cells [4]; Conc. 0.10 mM): 122.8 % of negative control; HL-60 Cell Responses to Selected Compounds from PM1 and PM2 (HL-60 cells [4]; Conc. 0.33 mM): 121.5 % of negative control; HL-60 Cell Responses to Selected Compounds from PM1 and PM2 (HL-60 cells [4]; Conc. 1.00 mM): 128.4 % of negative control; HL-60 Cell Responses to Selected Compounds from PM1 and PM2 (HL-60 cells [4]; Conc. 3.3 mM): 129.6 % of negative control; HL-60 Cell Responses to Selected Compounds from PM1 and PM2 (HL-60 cells [4]; Conc. 10 mM): 121.5 % of negative control; HL-60 Cell Responses to Selected Compounds from PM1 and PM2 (HL-60 cells [4]; Conc. 15 mM): 111.8 % of negative control; HL-60 Cell Responses to Selected Compounds from PM1 and PM2 (HL-60 cells [4]; Conc. 20 mM): 99.2 % of negative control
